{
  "source": "patent US20240058251A1",
  "about": "“Composition for Oral Cavity” (SUNSTAR SUISSE SA, priority 2020, published 2024)",
  "test_system": "Streptococcus oralis spp. tigurinus",
  "experiment": "S. oralis culture test (Alamar Blue fluorescence; proliferation rate relative to a control containing no sample solution)",
  "type": "cell-based",
  "protocol": "S. oralis was cultured in BHI medium (Brain Heart Infusion broth (manufactured by BD)). After the turbidity of the medium at a wavelength of 660 nm was measured, the culture solution was diluted with BHI medium until the turbidity was 0.1. The diluted medium was used as a bacterial solution. As S. oralis, Streptococcus oralis spp. tigurinus was used.\nSample solutions of Examples and Comparative Examples were prepared by dissolving an amino acid and a sugar in the BHI medium. The concentrations of the amino acid in the sample solutions were set at 0 mg/ml or 15 mg/ml and the concentrations of the sugar were set at 20 mg/ml.\nTo the wells of a 96-well plate, the bacterial solution (100 μl) and a sample solution (100 μl) were added. The 96-well plate was subjected to culturing performed at 37° C. in anaerobic conditions for 24 hours. After completion of the culture, the supernatant was removed and 110 μl of an Alamar Blue solution (manufactured by Invitrogen) diluted 11-fold with phosphate buffer saline (PBS), was added. Fluorescence intensity was measured at an excitation wavelength of 545 nm and a fluorescence wavelength of 590 nm. A relative value thereof to the fluorescence intensity of a control containing no sample solution was calculated as the proliferation rate of S. oralis. The proliferation rate calculated was evaluated based on the following evaluation criteria. The results are shown in Table 1. • A: 10 or more • B: 5 or more and less than 10 • C: less than 5 […]\nThe proliferation rate of S. oralis in the case in which galactose was used as the sugar and citrulline was used as the amino acid, was measured. The test method was the same as in Test 1. The concentrations of galactose and citrulline in sample solutions and the measurement results of proliferation rates are shown in Table 3. In Test 3, the concentrations of galactose in sample solutions were set at 0 mg/ml or 2 mg/ml and the concentrations of citrulline were set at 0.5 to 3.0 mg/ml.\nThe proliferation rate of S. oralis was measured in the case in which 2′-fucosyllactose was used as the sugar and arginine was used as the amino acid. The test method was the same as in Test 1. The concentrations of 2′-fucosyllactose and arginine in sample solutions and the measurement results of proliferation rates are shown in Table 4. […]",
  "data": [
    {"smiles": "N=C(N)NCCC[C@H](N)C(=O)O", "note": "[Comparative Example 1, Arginine]", "values": [
      {"measurement": "Effect of promoting proliferation of S. oralis (in words)", "setting": "Test 1", "result": "not obtained"},
      {"measurement": "Evaluation of proliferation rate", "setting": "Test 1, sample solution in BHI medium: sugar 20 mg/ml, amino acid 0 or 15 mg/ml, 37° C., anaerobic, 24 hours", "result": "C (less than 5)"}
    ]},
    {"smiles": "C[C@@H]1O[C@@H](O[C@H]2[C@H](O[C@H]3[C@H](O)[C@@H](O)C(O)O[C@@H]3CO)O[C@H](CO)[C@H](O)[C@@H]2O)[C@@H](O)[C@H](O)[C@@H]1O", "note": "(some centres unmarked) [Comparative Example 9, 2′-Fucosyllactose]", "values": [
      {"measurement": "Proliferation rate", "setting": "Test 4, 2′-fucosyllactose 1 mg/ml, arginine 0 mg/ml", "result": 1.0},
      {"measurement": "Proliferation rate", "setting": "Test 4, 2′-fucosyllactose 2 mg/ml, arginine 0 mg/ml", "result": 1.5},
      {"measurement": "Proliferation rate", "setting": "Test 4, 2′-fucosyllactose 3 mg/ml, arginine 0 mg/ml", "result": 0.9},
      {"measurement": "Proliferation rate", "setting": "Test 4, 2′-fucosyllactose 4 mg/ml, arginine 0 mg/ml", "result": 0.6},
      {"measurement": "Effect of promoting proliferation of S. oralis (in words)", "setting": "Test 4, 2′-fucosyllactose 1 to 4 mg/ml, arginine 0 or 1.5 mg/ml", "result": "scarcely observed"}
    ]},
    {"smiles": "NC(=O)NCCC[C@H](N)C(=O)O", "note": "[Comparative Example 8, Citrulline]", "values": [
      {"measurement": "Effect of promoting proliferation of S. oralis (in words)", "setting": "Test 3, citrulline 0.5 to 3.0 mg/ml, galactose 0 or 2 mg/ml", "result": "the effect of proliferating S. oralis was promoted but the level of the proliferation promotion effect decreased as the concentration of citrulline increased"},
      {"measurement": "Proliferation rate", "setting": "Test 3, galactose 0 mg/ml, citrulline 0.5 mg/ml", "result": 3.8},
      {"measurement": "Proliferation rate", "setting": "Test 3, galactose 0 mg/ml, citrulline 1.0 mg/ml", "result": 2.7},
      {"measurement": "Proliferation rate", "setting": "Test 3, galactose 0 mg/ml, citrulline 2.0 mg/ml", "result": 1.8}
    ]}
  ]
}
